Laboratory results published in US20170334899A1, “AMINO-SUBSTITUTED ISOTHIAZOLES” (Bayer Pharma Aktiengesellschaft, priority 2014, published 2017).
Where “and” joins values, the source holds several entries; their conditions need not be identical. Identical values can stand only once.

Biological target: T1, human kinase Mps-1 (Homo sapiens, UniProt P33981)
T1 construct: N-terminally GST-tagged human full length recombinant Mps-1 kinase; GST (N); purchased Invitrogen, Karslruhe, Germany PV4071
T1 sequence (P33981 1-857): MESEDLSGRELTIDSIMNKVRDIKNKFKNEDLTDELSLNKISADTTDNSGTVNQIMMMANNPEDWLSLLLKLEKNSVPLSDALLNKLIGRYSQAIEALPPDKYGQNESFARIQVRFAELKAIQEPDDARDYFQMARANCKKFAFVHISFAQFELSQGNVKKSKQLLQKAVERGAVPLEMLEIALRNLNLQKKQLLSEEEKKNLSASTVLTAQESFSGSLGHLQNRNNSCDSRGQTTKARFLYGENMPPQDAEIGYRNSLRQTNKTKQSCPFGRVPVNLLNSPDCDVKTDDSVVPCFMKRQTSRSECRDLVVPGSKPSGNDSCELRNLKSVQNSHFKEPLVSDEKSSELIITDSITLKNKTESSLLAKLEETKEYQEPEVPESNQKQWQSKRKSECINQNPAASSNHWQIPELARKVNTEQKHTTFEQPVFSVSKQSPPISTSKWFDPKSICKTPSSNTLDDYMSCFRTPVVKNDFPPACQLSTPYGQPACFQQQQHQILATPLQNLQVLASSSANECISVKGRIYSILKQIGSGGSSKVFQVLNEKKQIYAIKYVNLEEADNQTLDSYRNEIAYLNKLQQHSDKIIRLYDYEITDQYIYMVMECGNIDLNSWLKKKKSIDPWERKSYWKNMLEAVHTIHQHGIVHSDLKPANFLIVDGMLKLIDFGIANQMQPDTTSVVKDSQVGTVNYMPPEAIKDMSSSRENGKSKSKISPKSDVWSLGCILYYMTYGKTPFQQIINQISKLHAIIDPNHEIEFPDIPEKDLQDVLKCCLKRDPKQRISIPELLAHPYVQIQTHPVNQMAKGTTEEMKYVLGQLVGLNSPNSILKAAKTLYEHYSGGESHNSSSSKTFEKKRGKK
Assay: Mps-1 kinase assay (TR-FRET)
Format: biochemical
Conditions: Mps-1 TR-FRET kinase assay; avg; read-out: Mps1 avg (IC50 [mol/l])
Method in brief: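 Inhibition normalised between uninhibited reaction (0%) and enzyme-free wells (100%), using the blank-corrected TR-FRET 665/620 nm ratio after EDTA stop. Reaction: ~0.5 nM GST-Mps-1 full length, 10 μM ATP, 1 μM biotin-peptide, 60 min at 22 °C, after 15 min compound pre-binding, pH 7.7.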

IC50	SMILES
> 20 µM and 19 µM	Cc1nsc(Nc2cnc3ccccc3n2)c1C(=O)Nc1ccc(NCCN(C)C(=O)OC(C)(C)C)nc1 [Example 434, tert-Butyl methyl(2-{[5-({[3-methyl-5-(quinoxalin-2-ylamino)-1,2-thiazol-4-yl]carbonyl}amino)pyridin-2-yl]amino}ethyl)carbamate]
≥ 20 µM	Cc1nsc(Nc2ccc(C#N)cn2)c1C(=O)Nc1ccc(OC2CCCN(C(=O)OC(C)(C)C)C2)nc1 (stereo not drawn) [Example 36, tert-Butyl 3-({5-[({5-[(5-cyanopyridin-2-yl)amino]-3-methyl-1,2-thiazol-4-yl}-carbonyl)amino]pyridin-2-yl}oxy)piperidine-1-carboxylate]
≥ 20 µM	Cc1nsc(Nc2cc(C#N)ccn2)c1C(=O)Nc1ccc(OCCCN)nc1 [Example 44, N-[6-(3-Aminopropoxy)pyridin-3-yl]-5-[(4-cyanopyridin-2-yl)amino]-3-methyl-1,2-thiazole-4-carboxamide]
≥ 20 µM	Cc1nsc(Nc2cc(C#N)ccn2)c1C(=O)Nc1ccc(OC2CCCNC2)nc1 (stereo not drawn) [Example 35, 5-[(4-Cyanopyridin-2-yl)amino]-3-methyl-N-[6-(piperidin-3-yloxy)pyridin-3-yl]-1,2-thiazole-4-carboxamide]
≥ 20 µM	Cc1nsc(Nc2ccc(C#N)cn2)c1C(=O)Nc1ccc(OC2CCCNC2)nc1 (stereo not drawn) [Example 37, 5-[(5-Cyanopyridin-2-yl)amino]-3-methyl-N-[6-(piperidin-3-yloxy)pyridin-3-yl]-1,2-thiazole-4-carboxamide]
> 20 µM	Cc1nsc(Nc2cnc(C(F)(F)F)cn2)c1C(=O)Nc1ccc(OCCN2CCC(F)(F)CC2)nc1 [Example 407, N-{6-[2-(4,4-Difluoropiperidin-1-yl)ethoxy]pyridin-3-yl}-3-methyl-5-{[5-(trifluoromethyl)pyrazin-2-yl]amino}-1,2-thiazole-4-carboxamide]
> 20 µM	Cc1nsc(Nc2cnc(C(F)(F)F)cn2)c1C(=O)Nc1ccc(OCCCNC(=O)C(F)(F)F)nc1 [Example 428, 3-Methyl-N-(6-{3-[(trifluoroacetyl)amino]propoxy}pyridin-3-yl)-5-{[5-(trifluoro-methyl)pyrazin-2-yl]amino}-1,2-thiazole-4-carboxamide]
> 20 µM	Cc1nsc(Nc2ccc(C#N)cn2)c1C(=O)Nc1ccc(OC[C@H]2CCN(CC(F)(F)F)C2)nc1 [Example 405, 5-[(5-Cyanopyridin-2-yl)amino]-3-methyl-N-(6-{[(35)-1-(2,2,2-trifluoroethyl)pyrrolidin-3-yl]methoxy}pyridin-3-yl)-1,2-thiazole-4-carboxamide]
≥ 20 µM	Cc1nsc(Nc2nc3c(C(F)(F)F)cccc3s2)c1C(=O)Nc1ccc(OCCO)nc1 [Example 2, N-[6-(2-Hydroxyethoxy)pyridin-3-yl]-3-methyl-5-{[4-(trifluoromethyl)-1,3-benzo-thiazol-2-yl]amino}-1,2-thiazole-4-carboxamide]
> 20 µM	Cc1nsc(Nc2cnc(C(F)(F)F)cn2)c1C(=O)Nc1ccc(OC2CCNCC2)c(F)c1 [Example 431, N-[3-Fluoro-4-(piperidin-4-yloxy)phenyl]-3-methyl-5-{[5-(trifluoromethyl)pyrazin-2-yl]amino}-1,2-thiazole-4-carboxamide]
≥ 20 µM	Cc1nsc(Nc2ccc(C#N)cn2)c1C(=O)Nc1ccc(OCCCNC(=O)OC(C)(C)C)nc1 [Example 46, tert-Butyl [3-({5-[({5-[(5-cyanopyridin-2-yl)amino]-3-methyl-1,2-thiazol-4-yl}-carbonyl)amino]pyridin-2-yl}oxy)propyl]carbamate]
≥ 20 µM	Cc1nsc(Nc2nc3c(C(F)(F)F)cccc3s2)c1C(=O)Nc1ccc(OCCO)c(F)c1 [Example 4, N-[3-Fluoro-4-(2-hydroxyethoxy)phenyl]-3-methyl-5-{[4-(trifluoromethyl)-1,3-benzothiazol-2-yl]amino}-1,2-thiazole-4-carboxamide]
18 µM	Cc1nsc(Nc2cnc3ccccc3n2)c1C(=O)Nc1cccc(C(=O)N2CCOCC2)c1 [Example 52, 3-Methyl-N-[3-(morpholin-4-ylcarbonyl)phenyl]-5-(quinoxalin-2-ylamino)-1,2-thiazole-4-carboxamide]
> 20 µM	Cc1nsc(Nc2cnc(C(F)(F)F)cn2)c1C(=O)Nc1ccc(OC[C@H]2CCN(CC(F)(F)F)C2)nc1 [Example 404, 3-Methyl-N-(6-{[(3S)-1-(2,2,2-trifluoroethyl)pyrrolidin-3-yl]methoxy}pyridin-3-yl)-5-{[5-(trifluoromethyl)pyrazin-2-yl]amino}-1,2-thiazole-4-carboxamide]
≥ 20 µM	Cc1nsc(Nc2ccc(C#N)cn2)c1C(=O)Nc1ccc(OC2CCCN(CC(F)F)C2)nc1 (stereo not drawn) [Example 39, 5-[(5-Cyanopyridin-2-yl)amino]-N-(6-{[1-(2,2-difluoroethyl)piperidin-3-yl]oxy}-pyridin-3-yl)-3-methyl-1,2-thiazole-4-carboxamide]
